Structures are written as SMILES. A value given as a limit tells only on which side of the number the result lay.

The assay concerns Friedreich ataxia patient-derived human dermal fibroblasts. As to the kind of experiment: Cell viability evaluation test using human dermal fibroblasts derived from a Friedreich ataxia patient (BSO stress). The format is cell-based. The conditions noted are these: Fibroblast, rescue of cell viability, 30 μM BSO, 48 hours, Calcein-AM fluorescence, no BSO = 100%, BSO only = 0%. On the procedure:
Cell Viability Evaluation Test Using Human Dermal Fibroblasts Derived from a Friedreich Ataxia Patient
Compounds described herein were tested for their ability to rescue Friedreich ataxia patient-derived dermal fibroblasts stressed by the addition of L-buthionine-(S,R)-sulfoximine (BSO).
A MEMα medium and a Medium 199 medium were obtained from Thermo Scientific, and fetal bovine serum was obtained from DS Pharma. Basic fibroblast growth factor (b-FGF) was purchased from Funakoshi Co., Ltd. and epidermal growth factor (EGF) was purchased from PeproTech Inc. L-Buthionine-(S,R)-sulfoximine and bovine pancreas-derived insulin were purchased from Sigma. Calcein-AM was purchased from DOJINDO. An assay medium is a medium of 64% MEMα medium and 25% Medium 199 medium, and contains 10% fetal bovine serum, EGF whose final concentration is 10 ng/ml, 10 ng/ml of bFGF, and 10 μg/mL insulin. Cells were purchased from Coriell Institute.
A test compound was dissolved in DMSO to make a 1 mM or 10 mM stock solution. From this stock solution, serially diluted solutions were further prepared using DMSO and used in an assay.
Friedreich ataxia patient-derived human dermal fibroblasts were suspended in an assay medium, seeded into a 384-well plate at 650 cells/well/20 μl, and incubated at 37° C. in a 5% carbon dioxide incubator overnight. A test compound solution prepared in an assay medium from the serially diluted solution (DMSO) at 5 times higher than the final concentration was added in 10 μL per well of the cell-seeded plate. Then, 10 μL of 150 μM BSO solution was added. The amount of a reaction solution was adjusted to be finally 50 μL, and the final BSO concentration was made at 30 μM. The plate was incubated at 37° C. in 5% CO2 for 48 hours, and then media were removed from all wells, and 20 μl of a Calcein-AM solution, which had been 550-fold diluted by PBS, was added to each well. The plate was incubated at 37° C. for 20 to 30 minutes, and then fluorescence (485 nm/525 nm of excitation/radiation wavelength) was measured by a fluorescence plate reader.
The degree of the viability of fibroblasts that were not treated with BSO was regarded as 100%, the degree of the viability of cells that were treated with BSO only (without a compound) was regarded as 0%, and the viability of cells that were treated with a compound was calculated.
In general, EC50 refers to the concentration that produces a half-maximal response. With `COc1ccc(C2=C3N=C(N(C)C)N=C3c3ccccc3C2=O)cc1` [Example 1, 2-(Dimethylamino)-4-(4-methoxyphenyl)-5H-naphth[1,2-d]imidazol-5-one], the EC50 is 20 to 100 nM.

As for `Cc1ccc(C2=C3N=C(N(C)C)N=C3c3ccccc3C2=O)cc1` [Example 2], the EC50 was 17 nM.

As for `COc1ccc(C2=C3N=C(N(C)C)N=C3c3ccccc3C2=O)cn1` [Example 3], the EC50 is below 20 nM.

On to `Cc1ccccc1C1=C2N=C(N(C)C)N=C2c2ccccc2C1=O` [Example 4], for which the EC50 was 3.7 nM.

In the case of `CN(C)C1=NC2=C(c3ccccc3F)C(=O)c3ccccc3C2=N1` [Example 5], the 50% effective concentration (EC50) is 14 nM.

Consider `COc1ccc(C2=C3N=C(N(C)C)N=C3c3ccccc3C2=O)c(F)c1` [Example 8], for which the EC50 is 10 nM.

In the case of `COc1ccccc1C1=C2N=C(N(C)C)N=C2c2ccccc2C1=O` [Example 10], the EC50 was 5.1 nM.

In the case of `CN(C)C1=NC2=C(c3ccccc3N3CCOCC3)C(=O)c3ccccc3C2=N1` [Example 11], the EC50 was 6.4 nM.

Regarding `COc1cccc(F)c1C1=C2N=C(N(C)C)N=C2c2ccccc2C1=O` [Example 12], the 50% effective concentration (EC50) is 6.4 nM.

For the molecule `CN(C)C1=NC2=C(c3ccccc3N3CCCC3)C(=O)c3ccccc3C2=N1` [Example 13], the 50% effective concentration (EC50) is 5.4 nM.

Turning to `CN(C)C1=NC2=C(c3cccc4cccnc34)C(=O)c3ccccc3C2=N1` [Example 14], the half-maximal effective concentration (EC50) was 41 nM.

In the case of `Cc1cccc(C2=C3N=C(N(C)C)N=C3c3ccccc3C2=O)c1` [Example 15], the EC50 was 6 nM.

Regarding `COc1ccc(C2=C3N=C(N(C)C)N=C3c3ccccc3C2=O)c(C)c1` [Example 16], the EC50 is 9.1 nM.

For `CN(C)C1=NC2=C(c3ccccc3N(C)C)C(=O)c3ccccc3C2=N1` [Example 17], the concentration for a half-maximal effect (EC50) is 8.5 nM.

Regarding `CN(C)C1=NC2=C(c3ccccc3C(F)(F)F)C(=O)c3ccccc3C2=N1` [Example 20], the EC50 was below 3 nM.

Take `Cc1cc(F)ccc1C1=C2N=C(N(C)C)N=C2c2ccccc2C1=O` [Example 21]: the EC50 was 7.9 nM.

On to `Cc1cc(C(F)(F)F)ccc1C1=C2N=C(N(C)C)N=C2c2ccccc2C1=O` [Example 23], for which the EC50 was 5.9 nM.

`Cc1cc(OC(F)(F)F)ccc1C1=C2N=C(N(C)C)N=C2c2ccccc2C1=O` [Example 26]: the 50% effective concentration (EC50) is 7.2 nM.

On to `Cc1cnccc1C1=C2N=C(N(C)C)N=C2c2ccccc2C1=O` [Example 28], for which the EC50 is 4.8 nM.

As to `COc1ccc(C2=C3N=C(N(C)C)N=C3c3ccccc3C2=O)c(C(F)(F)F)c1` [Example 31], the half-maximal effective concentration (EC50) is 15 nM.

For the molecule `Cc1ccncc1C1=C2N=C(N(C)C)N=C2c2ccccc2C1=O` [Example 32], the EC50 is 6 nM.

For `CN(C)C1=NC2=C(c3ccccc3Cl)C(=O)c3ccccc3C2=N1` [Example 33], the EC50 is 16 nM.

`Cc1ncccc1C1=C2N=C(N(C)C)N=C2c2ccccc2C1=O` [Example 34]: the 50% effective concentration (EC50) is 7 nM.

As to `Cc1nn(C)c(C)c1C1=C2N=C(N(C)C)N=C2c2ccccc2C1=O` [Example 35], the EC50 is 2.5 nM.

For `Cc1cc(C#N)ccc1C1=C2N=C(N(C)C)N=C2c2ccccc2C1=O` [Example 36], the concentration for a half-maximal effect (EC50) is 9.5 nM.

Regarding `CN(C)C1=NC2=C(c3cnn(C)c3)C(=O)c3ccccc3C2=N1` [Example 38], the half-maximal effective concentration (EC50) is 18.8 nM.

Regarding `Cc1noc(C)c1C1=C2N=C(N(C)C)N=C2c2ccccc2C1=O` [Example 39], the 50% effective concentration (EC50) was 6.1 nM.

Regarding `CN(C)C1=NC2=C(c3ccc(N4CCOCC4)cc3)C(=O)c3ccccc3C2=N1` [Example 40], the EC50 was 11.6 nM.

For `CN(C)C(=O)c1cccc(C2=C3N=C(N(C)C)N=C3c3ccccc3C2=O)c1` [Example 41], the 50% effective concentration (EC50) was 12.9 nM.

Consider `CN(C)C1=NC2=C(c3nn(C)c4ccccc34)C(=O)c3ccccc3C2=N1` [Example 42], for which the concentration giving a half-maximal response (EC50) is 5.1 nM.

Regarding `COCc1cccc(C2=C3N=C(N(C)C)N=C3c3ccccc3C2=O)c1` [Example 43], the half-maximal effective concentration (EC50) is 20.1 nM.

With `Cc1ccc(C2=C3N=C(N(C)C)N=C3c3ccccc3C2=O)c(C)c1` [Example 44], the concentration for a half-maximal effect (EC50) is 17 nM.

As for `CCN(CC)C1=NC2=C(c3c(C)noc3C)C(=O)c3ccccc3C2=N1` [Example 46], the EC50 was 14.9 nM.

Take `Cc1noc(C)c1C1=C2N=C(N3CCOCC3)N=C2c2ccccc2C1=O` [Example 47]: the EC50 is 4.9 nM.

Turning to `CCN(CC)C1=NC2=C(c3cccc4cn[nH]c34)C(=O)c3ccccc3C2=N1` [Example 51], the EC50 is 11.8 nM.

Consider `CN(C)C1=NC2=C(c3ccc4cnn(C)c4c3)C(=O)c3ccccc3C2=N1` [Example 56], for which the concentration for a half-maximal effect (EC50) was 14.5 nM.

`CC(=O)Nc1cccc(C2=C3N=C(N(C)C)N=C3c3ccccc3C2=O)c1` [Example 59]: the concentration giving a half-maximal response (EC50) is 4 nM.

Take `Cc1cc(N2CCN(C)CC2)ccc1C1=C2N=C(N(C)C)N=C2c2ccccc2C1=O` [Example 62]: the EC50 is 5.5 nM.

`CCOc1ccc(C2=C3N=C(N(C)C)N=C3c3ccccc3C2=O)c(C)c1` [Example 63]: the half-maximal effective concentration (EC50) is 18.4 nM.

With `CCN(CC)C(=O)c1ccccc1C1=C2N=C(N(CC)CC)N=C2c2ccccc2C1=O` [Example 68], the 50% effective concentration (EC50) is 40.5 nM.

On to `CN(C)C1=NC2=C(c3ccccc3C#N)C(=O)c3ccccc3C2=N1` [Example 71, 2-[(2-dimethylamino)-5-oxo-5H-naphth[1,2-d]imidazol-4-yl]benzonitrile], for which the half-maximal effective concentration (EC50) was 15 nM.

`CN(C)C1=NC2=C(c3ccc(N(C)C)cc3)C(=O)c3ccccc3C2=N1` [Example 72]: the EC50 was 20 to 100 nM.

As to `CN(C)C1=NC2=C(c3ccccc3N3CCNCC3)C(=O)c3ccccc3C2=N1` [Example 73], the 50% effective concentration (EC50) is 7.2 nM.

Turning to `CC(C)N1CCN(c2ccc(C3=C4N=C(N(C)C)N=C4c4ccccc4C3=O)cc2)CC1` [Example 74], the EC50 was below 3 nM.

On to `Cc1nn(C)cc1C1=C2N=C(N(C)C)N=C2c2ccccc2C1=O` [Example 75], for which the concentration giving a half-maximal response (EC50) is 12.1 nM.

As to `Cc1c(C2=C3N=C(N(C)C)N=C3c3ccccc3C2=O)cnn1-c1ccccc1` [Example 76], the concentration for a half-maximal effect (EC50) is 20.3 nM.

On to `CN(C)C1=NC2=C(c3ccc4c(c3)OCCN4C)C(=O)c3ccccc3C2=N1` [Example 77], for which the EC50 is 17 nM.

Take `Cc1nc(-c2ccccc2)sc1C1=C2N=C(N(C)C)N=C2c2ccccc2C1=O` [Example 78]: the EC50 was above 100 nM.

`CN(C)C1=NC2=C(c3ccc4c(c3)OCCCO4)C(=O)c3ccccc3C2=N1` [Example 79]: the EC50 is 39.1 nM.

In the case of `CN1CCN(c2ccc(C3=C4N=C(N(C)C)N=C4c4ccccc4C3=O)cc2)CC1` [Example 80], the EC50 is 10 nM.

As for `COc1ccc(C2=C3N=C(N(C)C)N=C3c3ccccc3C2=O)c(Cl)c1` [Example 82], the EC50 is 16.5 nM.

For the molecule `COc1ccc(C)c(C2=C3N=C(N(C)C)N=C3c3ccccc3C2=O)c1` [Example 83], the concentration for a half-maximal effect (EC50) is 18.3 nM.

For the molecule `COc1ccc(Cl)c(C2=C3N=C(N(C)C)N=C3c3ccccc3C2=O)c1` [Example 86], the concentration for a half-maximal effect (EC50) was 14.9 nM.

On to `COc1cccc(C2=C3N=C(N(C)C)N=C3c3ccccc3C2=O)c1C` [Example 87], for which the concentration giving a half-maximal response (EC50) was 17.1 nM.

Consider `CCN(CC)C1=NC2=C(c3cccc(OC)c3C)C(=O)c3ccccc3C2=N1` [Example 88], for which the 50% effective concentration (EC50) is 17.1 nM.

For `CC(=O)c1ccc(C2=C3N=C(N(C)C)N=C3c3ccccc3C2=O)c(C)c1` [Example 89], the EC50 is 14.3 nM.

For `COc1ccc(F)c(C2=C3N=C(N(C)C)N=C3c3ccccc3C2=O)c1` [Example 90], the EC50 was 14 nM.

In the case of `COc1cccc(C2=C3N=C(N(C)C)N=C3c3ccccc3C2=O)c1F` [Example 92], the EC50 is 30.2 nM.

For the molecule `CCN(CC)C1=NC2=C(c3cccc(OC)c3F)C(=O)c3ccccc3C2=N1` [Example 93], the concentration for a half-maximal effect (EC50) was 29.1 nM.

In the case of `COc1cccc(C2=C3N=C(N(C)C)N=C3c3ccccc3C2=O)c1Cl` [Example 94], the EC50 is 22.6 nM.

The record behind these values is patent US12281083B2, “2-substituted amino-naphth (1,2-d) imidazol-5-one compounds of pharmaceutically acceptable salts thereof” (PTC Therapeutics, Inc., priority 2016, dated 2025).
